How the values were obtained:
Eriochloa = assay: Pre-emergence test/greenhouse; assay type: in vivo; conditions: 125 g of ai./ha, rated after three weeks vs untreated control, 0% = no effect, 100% = total destruction
Protocol: (§1) Pre-emergence Test Solvent: 5 parts by weight of acetone Emulsifier: 1 part by weight of alkylaryl polyglycol ether To produce a suitable preparation of active compound, 1 part by weight of active compound is mixed with the stated amount of solvent, the stated amount of emulsifier is added and the concentrate is diluted with water to the desired concentration. Seeds of the test plants are sown in normal soil. After 24 hours, the soil is sprayed with the preparation of active compound such that the particular amount of active compound desired is applied per unit area. The active compound concentration in the spray liquor is chosen so that the particular amount of active compound desired is applied in 1000 liters of water per hectare. After three weeks, the degree of damage to the plants is rated in % damage in comparison to the development of the untreated control. The figures denote: 0%=no effect (like untreated control) 100%=total destruction

Galium [1] = assay: Pre-emergence test/greenhouse; assay type: in vivo; conditions: 125 g of ai./ha, rated after three weeks vs untreated control, 0% = no effect, 100% = total destruction
Protocol: as §1

Lolium = assay: Pre-emergence test/greenhouse; assay type: in vivo; conditions: 125 g of ai./ha, rated after three weeks vs untreated control, 0% = no effect, 100% = total destruction
Protocol: as §1

Matricaria = assay: Pre-emergence test/greenhouse; assay type: in vivo; conditions: 125 g of ai./ha, rated after three weeks vs untreated control, 0% = no effect, 100% = total destruction
Protocol: as §1

Setaria [2] = assay: Pre-emergence test/greenhouse; assay type: in vivo; conditions: 125 g of ai./ha, rated after three weeks vs untreated control, 0% = no effect, 100% = total destruction
Protocol: as §1

Soya = assay: Pre-emergence test/greenhouse; assay type: in vivo; conditions: 125 g of ai./ha, rated after three weeks vs untreated control, 0% = no effect, 100% = total destruction
Protocol: as §1

Wheat = assay: Pre-emergence test/greenhouse; assay type: in vivo; conditions: 125 g of ai./ha, rated after three weeks vs untreated control, 0% = no effect, 100% = total destruction
Protocol: as §1

Galium [3] = assay: Post-emergence test/greenhouse; assay type: in vivo; conditions: 1000 g of ai./ha, rated after three weeks vs untreated control, 0% = no effect, 100% = total destruction
Protocol: (§2) Solvent: 5 parts by weight of acetone
(§3) Emulsifier: 1 part by weight of alkylaryl polyglycol ether
(§4) To produce a suitable preparation of active compound, 1 part by weight of active compound is mixed with the stated amount of solvent, the stated amount of emulsifier is added and the concentrate is diluted with water to the desired concentration.
(§5) Test plants which have a height of 5 to 15 cm are sprayed with the preparation of active compound such that the particular amounts of active compound desired are applied per unit area. The concentration of the spray liquor is chosen so that the particular amounts of active compound desired are applied in 1000 1 of water/ha.
(§6) After three weeks, the degree of damage to the plants is rated in % damage in comparison to the development of the untreated control.
(§7) 0%=no effect (like untreated control))

Maize = assay: Post-emergence test/greenhouse; assay type: in vivo; conditions: 1000 g of ai./ha, rated after three weeks vs untreated control, 0% = no effect, 100% = total destruction
Protocol: as §2, §3, §4, §5, §6, §7

Setaria [4] = assay: Post-emergence test/greenhouse; assay type: in vivo; conditions: 1000 g of ai./ha, rated after three weeks vs untreated control, 0% = no effect, 100% = total destruction
Protocol: as §2, §3, §4, §5, §6, §7

Xanthium = assay: Post-emergence test/greenhouse; assay type: in vivo; conditions: 1000 g of ai./ha, rated after three weeks vs untreated control, 0% = no effect, 100% = total destruction
Protocol: as §2, §3, §4, §5, §6, §7

weeds [5] = assay: Pre-emergence test, overall activity against weeds; assay type: in vivo; conditions: in words
Protocol: as §1

[6] = test system: crop plants, such as soya and wheat; assay: Pre-emergence test, crop tolerance; assay type: in vivo; conditions: in words
Protocol: as §1

weeds [7] = assay: Post-emergence test, overall activity against weeds; assay type: in vivo; conditions: in words
Protocol: as §2, §3, §4, §5, §6, §7

[8] = test system: crop plants, such as maize; assay: Post-emergence test, crop tolerance; assay type: in vivo; conditions: in words
Protocol: as §2, §3, §4, §5, §6, §7

Q: What does the source list for `CC(C)N(C(=O)COc1nnc(C(F)(F)Cl)s1)c1ccc(F)cc1` [Example 1, N-i-propyl-N-(4-fluoro-phenyl)-2-(5-chlorodifluoromethyl-1,3,4-thiadiazol-2-yl-oxy)-acetamide]?
A: degree of damage, Eriochloa (Eriochloa): 100%; degree of damage, Galium (Galium [1]): 90%; degree of damage, Lolium (Lolium): 90%; degree of damage, Matricaria (Matricaria): 100%; degree of damage, Setaria (Setaria [2]): 100%; degree of damage, Soya (Soya): 0%; degree of damage, Wheat (Wheat): 0%; degree of damage, Galium (Galium [3]): 95%; degree of damage, Maize (Maize): 30%; degree of damage, Setaria (Setaria [4]): 95%; degree of damage, Xanthium (Xanthium): 80%; activity against weeds (weeds [5]): very strong activity; tolerance by crop plants [6]: tolerated well; activity against weeds (weeds [7]): strong activity; tolerance by crop plants [8]: tolerated well; melting point: 98 °C

— patent publication US6602827B1, “Herbicidal 5-chlorodifluoromethyl-1,3,4-thiadiazol-2-yl-oxyacetanilides” (Bayer Aktiengesellschaft, priority 1999, dated 2003)
